Experiments:
[1] = system: Salmonella strains TA 98, TA 2637, and TA 100; details: at highest non-toxic concentration; cited from earlier work
[2] = Cell viability, sulforhodamine B assay; format: cell-based; details: human, CCD 841 CoN colon epithelial cells (non-tumoral cell line), 72 h exposure, dilutions 12.5 to 100 μM, non-tumor cell line, read-out: Cytotoxicity IC50, CoN
Method: (§1) The cytotoxicity of compounds 1–12 was evaluated in vitro against different cancer cell lines: MCF-7 breast cancer, DU-145 and PC-3 human prostate cancer, and one non-tumor cell line, human colon epithelial cells CCD 841 CoN (CoN). […] Four serial dilutions (from 12.5 to 100 μM) for each sample were evaluated in triplicate.
(§2) The experimental cell cultures were obtained from the American Type Culture Collection (Rockville, MD, USA). MCF-7 cells (breast cancer cell line), PC-3 and DU-145 (prostate cancer cell lines), and human colon epithelial cells CCD 841 CoN (non-tumoral cell line) were grown in Dulbecco’s modified Eagle’s medium (DMEM) containing 10% FCS, 100 U/mL penicillin, 100 μg/mL streptomycin, and 1 mM glutamine. Cells were seeded into 96 well microtiter plates in 100 μL at a plating density of 5 × 10^3 cells/well. After 24 h incubation at 37 °C under a humidified 5% CO2 atmosphere to allow cell attachment, the cells were treated with different concentrations of drugs and incubated for 72 h under the same conditions. Stock solutions of compounds were prepared in ethanol and the final concentration of this solvent was kept constant at 1%. Control cultures received 1% ethanol alone.
(§3) The sulforhodamine B assay was used according to the method of Skehan et al.. Briefly, the cells were set up at 3 × 10^3 cells per well of a 96 200 μL well, flat-bottomed, microplate. Cells were incubated at 37 °C in a humidified 5% CO2/95% air mixture and treated with the compounds at different concentrations for 72 h. At the end of drug exposure, cells were fixed with 50% trichloroacetic acid at 4 °C. After washing with water, cells were stained with 0.1% sulforhodamine B (Sigma-Aldrich, St. Louis, MO, USA), dissolved in 1% acetic acid (50 μL/well) for 30 min, and subsequently washed with 1% acetic acid to remove unbound stain. Protein-bound stain was solubilized with 100 μL of 10 mM unbuffered Tris base, and the cell density was determined using a […] plate reader (wavelength 540 nm). Values shown are the mean ± SD of three independent experiments in triplicate. The software used to calculate the IC50 values was GraphPad (GraphPad Software, San Diego, CA, USA).

[3] = system: DU-145 prostate cancer cell line; assay: Cell viability, sulforhodamine B assay; format: cell-based; details: Homo sapiens, 72 h exposure, dilutions 12.5 to 100 μM, read-out: Cytotoxicity IC50, DU145
Method: as §1, §2, §3

[4] = system: PC-3 prostate cancer cell line; assay: Cell viability, sulforhodamine B assay; format: cell-based; details: Homo sapiens, 72 h exposure, dilutions 12.5 to 100 μM, read-out: Cytotoxicity IC50, PC-3
Method: as §1, §2, §3

[5] = system: MCF-7 breast cancer cell line; assay: Cell viability, sulforhodamine B assay; format: cell-based; details: Homo sapiens, MCF7, 72 h exposure, dilutions 12.5 to 100 μM, read-out: Cytotoxicity IC50, MCF-7
Method: as §1, §2, §3

[6] = system: panel of cancer cell lines; assay: Cytotoxicity against a panel of cancer cell lines (summary); format: cell-based; details: Homo sapiens; summary statement of the conclusions
Method: as §1, §3

CoN cells [7] = assay: Mitochondrial membrane permeability, rhodamine 123 flow cytometry; format: cell-based, human
From the text: (§4) Mitochondria play a crucial role in the apoptotic cascade by serving as a convergent center of apoptotic signals originating from both the extrinsic and intrinsic pathways. Changes induced in the mitochondrial membrane potential (MMP) have been reported previously to represent a determinant in the execution of cell death. As polygodial has been described as an inhibitor of mitochondrial ATPase and also as nonionic surfactant. This effect may be determinant in cell death, we has analyzed the effect of compounds 1, 8 and 12 on the mitochondrial membrane potential using flow cytometry with rhodamine 123 stain [24]. […] Similar differences were observed after treatments with compounds 1 and 8 at 100 μM.
(§5) Rhodamine 123, a cationic, voltage-sensitive probe that reversibly accumulates in mitochondria, was used to detect changes in transmembrane mitochondrial membrane potentials. Cells were labelled with 1 μM rhodamine 123 at 37 °C in cell medium for 60 min before terminating the experiment. Cells were detached from the plate, after washing with ice cold PBS, and the samples were analyzed by flow cytometry. Data are expressed in percentage of cells with rhodamine 123 [24].

PC-3 cells [8] = assay: as above; format: cell-based, human
From the text: as §4, §5

MCF-7 cells [9] = assay: as above; format: cell-based, human
From the text: as §4, §5

CoN cells [10] = assay: Morphological changes, phase contrast microscope; format: cell-based, human; details: 50 μM compound for 24 h
Method: (§6) First, the appearance of morphological changes in the cells treated with 50 μM compound for 24 h was analyzed.

PC-3 cells [11] = assay: Morphological changes, phase contrast microscope; format: cell-based, human; details: PC-3, 50 μM compound for 24 h
Method: as §6

MCF-7 cells [12] = assay: Morphological changes, phase contrast microscope; format: cell-based, human; details: MCF-7, 50 μM compound for 24 h
Method: as §6

CoN cells [13] = assay: Morphological assessment of cell apoptosis, Hoechst 33342 staining; format: cell-based, human; details: 24 h exposure, fluorescence microscope
Method: (§7) Nuclear changes in PC-3, MCF-7 and CoN cells were observed under a fluorescence microscope (200×, Figure 4).
(§8) Briefly, on 24-well chamber slides, 1 × 10^4 cells/mL were cultured and exposed to compounds for 24 h. The control group was also exposed to 1% ethanol. The cells were washed twice with phosphate buffer solution, fixed with 3.7% formaldehyde, and washed again with phosphate buffer solution. Following the addition of 1 μM Hoechst 33342 (Sigma-Aldrich, Santiago, Chile), they were reacted in a dark room at room temperature for 30 min. After washing, they were examined under an immunofluorescence microscope (IX 81 model inverted microscope, Olympus, Santiago, Chile).

PC-3 cells [14] = assay: as above; format: cell-based, human; details: PC-3, 24 h exposure, fluorescence microscope
Method: as §7, §8

MCF-7 cells [15] = assay: as above; format: cell-based, human; details: MCF-7, 24 h exposure, fluorescence microscope
Method: as §7, §8

caspase-3 in CoN cells = assay: Caspase 3 activity assay (colorimetric, DEVD-pNA); format: cell-based, human; details: compound 50 μM, control 1% ethanol
From the text: (§9) Depletion of mitochondrial membrane potential leads to the release of apoptogenic factors, such as cytochrome c in the apoptotic cascade, and activation of caspases. Then we investigated the effects of our compounds on caspase activity. We focused on caspase-3, which is a main executor of apoptosis playing a central role in its biological processing. We analyzed the effect of treatment with the compound 1, 8 and 12 on caspase-3 activation in normal and cancer cells. […] Compound 1 increased the activity of caspase-3 by 3.4 ± 0.1, 1.4 ± 0.1 and 2.8 ± 0.1 times versus control cells in MCF-7 (black), CoN (white) and PC-3 (gray) cells, respectively. Compound 8 increased the activity of caspase 3 by 2.4 ± 0.1, 1.3 ± 0.2 and 2.7 ± 0.1 times versus control cells in MCF-7 (black), CoN (white) and PC-3 (gray) cells, respectively.
(§10) Caspase activity was measured using a colorimetric assay. Briefly, the cells exposed to compounds were collected by centrifugation at 1000 rpm and lysed with lysis buffer (1% Triton X-100, 0.32 M sucrose, 5 mM EDTA, 10 mM Tris–HCl, pH 8.0, 2 mM dithiothreitol, 1 mM PMSF, […] aprotinin, 1 mg/mL leupeptin). Thereafter, the lysates were transferred to wells in a 96-well microplate and were incubated with DEVD-pNA (final concentration 200 μM) specific for caspase-3/7, at 37 °C for 1 h. The intensity of the developed color was read at 405 nm in a microplate reader (SpectraMax, Winooski, VT, USA). The results are expressed as percentages of the control level.

caspase-3 in MCF-7 cells = assay: Caspase 3 activity assay (colorimetric, DEVD-pNA); format: cell-based, human; details: MCF-7, compound 50 μM; control 1% ethanol
From the text: as §9, §10

caspase-3 in PC-3 cells = assay: Caspase 3 activity assay (colorimetric, DEVD-pNA); format: cell-based, human; details: PC-3, compound 50 μM; control 1% ethanol
From the text: as §9, §10

[16] = compound 50 µM, control treated cells assigned 100%
[17] = compound 100 µM, control treated cells assigned 100%
[18] = PC-3, compound 100 µM, control treated cells assigned 100%
[19] = MCF-7, compound 50 µM, control treated cells assigned 100%
[20] = MCF-7, compound 100 µM, control treated cells assigned 100%

Compound | IC50 at 72 h [2] [µM] | IC50 [3] [µM] | IC50 [4] [µM] | IC50 [5] [µM] | IC50 [6] [µM] | further results
CC1(C)CCC[C@]2(C)[C@H](C=O)C(C=O)=CC[C@@H]12 [Compound 2, isopolygodial] | > 200 | > 200 | > 200 | > 200 | – | mutagenic activity [1]: no mutagenic activity
CC1=CC[C@H]2C(C)(C)CCC[C@]2(C)[C@H]1CO [Compound 3, drimenol] | > 200 | > 200 | > 200 | > 200 | – | –
CC1(C)CCC[C@]2(C)C3=C(CC[C@@H]12)C(=O)OC3 [Compound 4, confertifolin] | > 200 | > 200 | > 200 | > 200 | – | –
CC1(C)CCC[C@]2(C)C3=C(CC[C@@H]12)COC3=O [Compound 5, isodrimenin] | > 200 | 90.5 ± 8.2 | 87.6 ± 9.2 | > 200 | < 200 | –
CC1(C)CCC[C@]2(C)[C@H](CO)C(CO)=CC[C@@H]12 [Compound 6, 9α-drimendiol] | > 200 | > 200 | > 200 | > 200 | – | –
CC1(C)CCC[C@]2(C)[C@@H](CO)C(CO)=CC[C@@H]12 [Compound 7, 9β-drimendiol] | > 200 | > 200 | > 200 | > 200 | – | –
CC1(C)CCC[C@]2(C)[C@@H](C3OCCO3)C(C=O)=CC[C@@H]12 [Compound 8] | > 200 | 70.6 ± 5.9 | 65.4 ± 5.5 | 97.1 ± 7.2 | < 200 | percentage of rhodamine 123 stained cells (CoN cells [7]; [16]): 96.0% ± 7.6%; percentage of rhodamine 123 stained cells (CoN cells [7]; compound 50 µM, control treated cells assigned 100%, listed as Comp. 8): 96.0 ± 7.6%; percentage of rhodamine 123 stained cells (CoN cells [7]; [17]): 52.3 ± 8.4 %; percentage of rhodamine 123 stained cells (PC-3 cells [8]; PC-3, compound 50 µM, control treated cells assigned 100%, listed as Comp. 8): 136.2 ± 18.5%; percentage of rhodamine 123 stained cells (PC-3 cells [8]; [18]): 92.8 ± 10.4%; percentage of rhodamine 123 stained cells (MCF-7 cells [9]; [19]): 93.3% ± 7.1%; percentage of rhodamine 123 stained cells (MCF-7 cells [9]; MCF-7, compound 50 µM, control treated cells assigned 100%, listed as Comp. 8): 93.3 ± 7.1%; percentage of rhodamine 123 stained cells (MCF-7 cells [9]; [20]): 72.3 ± 6.4 %; morphological changes of cells (CoN cells [10]): severely distorted; morphological changes of cells (PC-3 cells [11]): severely distorted; morphological changes of cells (MCF-7 cells [12]): severely distorted; nuclear changes after Hoechst 33342 staining (CoN cells [13]): chromatin condensation and karyopyknosis; nuclear changes after Hoechst 33342 staining (PC-3 cells [14]): chromatin condensation and karyopyknosis; nuclear changes after Hoechst 33342 staining (MCF-7 cells [15]): chromatin condensation and karyopyknosis; increase of caspase-3 activity (caspase-3 in CoN cells): 1.3 ± 0.2 times versus control cells; increase of caspase-3 activity (caspase-3 in MCF-7 cells): 2.4 ± 0.1 times versus control cells; increase of caspase-3 activity (caspase-3 in PC-3 cells): 2.7 ± 0.1 times versus control cells
CC1(C)CCC[C@]2(C)[C@H]3O[C@@]3(C)C(=O)C[C@@H]12 [Compound 9] | > 200 | 93.5 ± 6.7 | 97.5 ± 10.4 | > 200 | < 200 | –
CC(=O)O[C@H]1C[C@H]2C(C)(C)CCC[C@]2(C)C=C1C [Compound 10] | > 200 | > 200 | > 200 | > 200 | – | –
CC(=O)O[C@H]1C[C@H]2C(C)(C)CCC[C@]2(C)[C@@H]2O[C@]12C [Compound 11, (5S,7S,8R,9S,10S)-4,4,8β,10β-tetramethyldecahydronaphtho[8,9-α]oxiren-7-yl acetate] | > 200 | > 200 | > 200 | > 200 | – | –
CC1(C)CCCC2(C)C1CC(=O)C1(C)OC12 (stereo not drawn) [Compound 12, 8α,9α-epoxi-11-nordriman-7-one] | > 200 | > 200 | 90.2 ± 8.8 | 88.4 ± 7.1 | < 200 | percentage of rhodamine 123 stained cells (CoN cells [7]; [16]): 102.6 ± 9.1%; percentage of rhodamine 123 stained cells (CoN cells [7]; [17]): 124.9 ± 9.7%; percentage of rhodamine 123 stained cells (PC-3 cells [8]; PC-3, compound 50 µM, control treated cells assigned 100%): 139.1 ± 12.4%; percentage of rhodamine 123 stained cells (PC-3 cells [8]; [18]): 149.3 ± 21.3%; percentage of rhodamine 123 stained cells (MCF-7 cells [9]; [19]): 111.4 ± 8.9%; percentage of rhodamine 123 stained cells (MCF-7 cells [9]; [20]): 111.3 ± 9.8%; morphological changes of cells (CoN cells [10]): severely distorted; morphological changes of cells (PC-3 cells [11]): severely distorted; morphological changes of cells (MCF-7 cells [12]): severely distorted; increase of caspase-3 activity (caspase-3 in CoN cells): did not change; increase of caspase-3 activity (caspase-3 in MCF-7 cells): did not change; increase of caspase-3 activity (caspase-3 in PC-3 cells): did not change
N#CC(C#N)=NNc1ccc(OC(F)(F)F)cc1 [FCCP, reference compound] | – | – | – | – | – | percentage of rhodamine 123 stained cells (CoN cells [7]; positive control FCCP 10 μM): 6.8 ± 1.3 %; percentage of rhodamine 123 stained cells (PC-3 cells [8]; PC-3, positive control FCCP 10 μM): 5.2 ± 0.4 %; percentage of rhodamine 123 stained cells (MCF-7 cells [9]; MCF-7, positive control FCCP 10 μM): 7.4 ± 0.4 %
